Reference: patent US20210235692A1, “Stable 1-Methylcyclopropene Compositions and Uses Thereof” (Fresh Inset S.A., priority 2020, published 2021)

Assay: Percentage of dimers by gas chromatography over time, 1-MCP/butane 1:1 and negative control
Format: physicochemical
Excerpt: 1-MCP and butane was mixed in liquid form in 1:1 ratio (v/v). Then, the mixture was transferred into the glass container.
Table 18 and FIG. 11 (plot line with circular data points) show the percentage of dimers in the composition as measured by gas chromatography at various points over time. The dotted line is a trend line that extrapolates the 1-MCP/butane plot. A negative control containing only 1-MCP was used for comparison. Table 19 and FIG. 11 (plot line with square data points) show the percentage of dimers in the negative control as measured by gas chromatography at the same points over time that the composition was measured.

Structure (SMILES): CC1=CC1 [negative control, 1-methylcyclopropene]
- % of dimer (time 1 h): 0.229%
- % of dimer (time 3.75 h): 0.401%
- % of dimer (time 25.75 h): 4.013%
- % of dimer (time 123.5 h): 49.588%
